From paper PMC9703152 (Journal of hepatology, 2020)
Structures can show the parent of a compound that is named as a salt. Where two headings read alike, the source gives them in different places.

Columns and labels:
HBVWT^C2 [1] = assay: Anti-HBV qPCR assay in HBV-exposed PXB-cells; assay type: cell-based, Hepatitis B virus; settings: for IC50: Hepatitis B virus, read-out: IC50^qPCR_cell; for IC95^qPCR_sup / IC95^qPCR_cell: PXB-cells; for IC95^qPCR_sup: HBVWT^C2, HBV-DNA in culture medium blocked by 95%; for IC95^qPCR_cell: HBVWT^C2, intracellular HBV-DNA blocked by 95%
HBVWT^D1 [2] = assay: microbe, parasite or virus in culture; assay type: cell-based, Hepatitis B virus
[3] = tested on: mtDNA production in PXB-cells
HBVWT^C2 [4] = assay: Antiviral effect in chronically HBVWT^C2-infected PXB-mice; assay type: in vivo; settings: for reduction of serum HBVWT^C2-DNA copies: day 21
HBVWT^D1 [5] = settings: high concentrations (100 and 1,000 nM), HepG2.2.15 cells
[6] = tested on: mtDNA production in human PBMCs
HBV [7] = settings: 90 mg/kg/day, 3-week administration, HBV-infected PXB-mice; cited from earlier work
HBVWT^D1 [8] = assay: microbe, parasite or virus in culture; settings: Hepatitis B virus, HepG2.2.15, read-out: IC50^qPCR_cell
[9] = Acid resistance: anti-HBV activity after pH 2 exposure; assay type: physicochemical; settings: pH 2, 5 and 60 minutes at 37 °C, then tested in HepG2.2.15 cells
HBV [10] = assay: Combination of E-CFCP with GLS4, HBV-DNA production by HepG2.2.15 cells; assay type: cell-based, Hepatitis B virus
[11] = Body weights and serum human albumin in treated PXB-mice; assay type: in vivo
HIV-1LAI = assay: Anti-HIV assay; assay type: cell-based; settings: Human immunodeficiency virus 1, read-out: IC50^MTT
[12] = Intracellular concentration of compound in HepG2.2.15 cells; assay type: in vitro ADME, human; settings: 100 µM, 6 hours incubation
[13] = Cytotoxicity, MTT assay, HepG2 cells; assay type: cell-based; settings: human
[14] = Cytotoxicity, MTT assay, Huh7 cells; assay type: cell-based; settings: human
[15] = Cytotoxicity, MTT assay, PXB-cells; assay type: cell-based; settings: human
[16] = Cytotoxicity, Neutral Red staining assay, primary hepatocytes; settings: human
[17] = Cytotoxicity, MTT assay, MT-2 cells; assay type: cell-based; settings: human
[18] = Cytotoxicity, LDH release assay, primary hepatocytes; settings: human
[19] = tested on: MOT-4 cells and human primary peripheral blood mononuclear cells; assay: Cell proliferation assays in MOT-4 cells and human PBMCs; assay type: cell-based
[20] = Intracellular concentrations of phosphorylated forms in HepG2.2.15 cells; assay type: in vitro ADME, human
[21] = 10 µM, 6 days of culture without compound

## C=C1[C@H](CO)[C@@H](O)C[C@@H]1n1cnc2c(=O)[nH]c(N)nc21 [ETV, entecavir]
HBVWT^C2 [1]
  IC50: 0.13 nM
  IC95^qPCR_sup: 0.079 µM
  IC95^qPCR_cell: 0.859 µM
HBVWT^D1 [2]; [21]
  HBV-DNA synthesis blockade: < 80%
[3]; human
  Mitotox50: 35.2 µM
HBVWT^C2 [4]; 0.02 mg/kg/day, two weeks, at conclusion of administration (day 14)
  reduction of serum HBVWT^C2-DNA copy numbers: 2.0±0.07 log
HBVWT^D1 [5]
  inhibition of HBV-DNA production: < 100%
[6]; human
  Mitotox50: 40.4 µM

## C=C1C(n2cnc3c(=O)[nH]c(N)nc32)CC(O)C1(C#N)CO (stereo not drawn) [CMCdG]
[6]; human PBMCs and PXB-cells
  inhibition of mtDNA production (in words): non-toxic

## CC(C)OC(=O)OCOP(=O)(CO[C@H](C)Cn1cnc2c(N)ncnc21)OCOC(=O)OC(C)C [TDF, tenofovir disoproxil fumarate]
HBV [7]
  viral load reduction: approximately 1.5 logs

## N#C[C@]1(CO)/C(=C/F)[C@@H](n2cnc3c(=O)[nH]c(N)nc32)C[C@@H]1O [Z-CFCP]
HBVWT^D1 [8]
  IC50: 0.414 µM

## N#C[C@]1(CO)/C(=C\F)[C@@H](n2cnc3c(=O)[nH]c(N)nc32)C[C@@H]1O [E-CFCP]
HBVWT^C2 [1]
  IC50: 0.01 nM
  IC95^qPCR_sup: 0.0035 µM
  IC95^qPCR_cell: 0.339 µM
[9]
  anti-HBV activity after pH 2 exposure: comparable to pH 2-unexposed E-CFCP
HBV [10]; 1 and 10 nM E-CFCP with GLS4 at the same concentration
  combination effect with GLS4 (Chou-Talalay Method): synergism was observed
HBV [10]; 100 and 1,000 nM E-CFCP with GLS4 at the same concentration
  combination effect with GLS4 (Chou-Talalay Method): no synergism was detected
[11]; 0.2 mg/kg/day for 2 weeks, HBVWT^C2-infected PXB-mice
  changes in body weights or serum human albumin levels: No significant changes
[11]; once daily 0.2 mg/kg/day, E-CFCP-receiving vs ETV-receiving mice
  changes of body weights and human serum albumin over 8 weeks: no significant changes
HBVWT^D1 [2]; [21]
  HBV-DNA synthesis blockade: 100%
HBVWT^D1 [2]; 10 µM, 16 days of culture without compound
  HBV-DNA synthesis blockade: > 80%
HBVWT^D1 [2]; 10 µM, exposed 11 days, 14 days of culture without compound
  % inhibition of HBVWT^D1-DNA production: > 90%
HBVWT^D1 [2]; HepG2.2.15 cells
  persistence of anti-HBV activity (>80% Inhibition) after compound removal: ~16 days
HIV-1LAI
  IC50: 0.205 ± 0.0238 µM
[12]
  intracellular concentration: approximately 200 pmol/2×10^6 cells
[13]; HepG2 cells
  CC50: 115 µM
[14]; Huh7 cells
  CC50: > 500 µM
[15]; PXB-cells
  CC50: > 500 µM
[16]; primary hepatocytes
  CC50: > 100 µM
[3]; PXB-cells, mtDNA production
  Mitotox50: 29.6 µM
HBVWT^C2 [4]; 0.02 mg/kg/day for two weeks
  reduction of serum HBVWT^C2-DNA copies: 2.2±0.06 log
HBVWT^C2 [4]; 0.2 mg/kg/day
  persistence of reduction after administration cessation: ≥ 3 weeks
HBVWT^C2 [4]; 0.2 mg/kg/day for two weeks
  reduction of serum HBVWT^C2-DNA copies: 2.6±0.1 log
HBVWT^C2 [4]; PXB-mice, 0.02∼0.2 mg/kg/day
  persistence of reduction following treatment cessation: 1–3 weeks
HBVWT^C2 [4]; once-daily peroral, 2 weeks, 0.02∼0.2 mg/kg/day
  reduction of HBVWT^C2-viremia: 2–3 logs
[17]; MT-2 cells
  CC50: 306 µM
HBVWT^D1 [8]
  IC50: 0.0018 µM
[18]; primary hepatocytes
  CC50: > 100 µM
[19]
  cell proliferation safety profile (in words): highly favorable safety profiles
HBVWT^D1 [5]
  inhibition of HBV-DNA production: 100%
[6]; human PBMCs, mtDNA production
  Mitotox50: 38.2 µM

## Nc1ccn([C@H]2CC[C@@H](CO)O2)c(=O)n1 [zalcitabine/ddC, zalcitabine]
[6]
  inhibition of mtDNA production (in words): strongly blocked mtDNA production

## CC(C)OC(=O)[C@H](C)N[P@](=O)(CO[C@H](C)Cn1cnc2c(N)ncnc21)Oc1ccccc1 [TAF, tenofovir alafenamide, reference compound]
HBVWT^C2 [1]
  IC50: 0.59 nM
  IC95^qPCR_sup: 0.09 µM
  IC95^qPCR_cell: 0.513 µM
HBVWT^D1 [2]; Hepatitis B virus, HepG2.2.15, read-out: HBV-DNA production inhibition
  inhibition at 1 µM: 90%
[13]
  CC50: 22 µM
[14]
  CC50: 34 µM
[15]
  CC50: 8.2 µM
[16]
  CC50: 26 µM
[17]
  CC50: 21 µM
[18]
  CC50: 97 µM
HBVWT^D1 [5]
  inhibition of HBV-DNA production: < 100%

## C[C@@H](Cn1cnc2c(N)ncnc21)OCP(=O)(O)OP(=O)(O)OP(=O)(O)O [TFV-DP]
[20]
  intracellular phosphorylated form (in words): not detected by day 3 and beyond
